In patent publication US9133207B2, “Tetrandrine derivatives with substituted 5-carbon, preparation method and use thereof” (Hangzhou Bensheng Pharmaceutical Co., Ltd., priority 2011, dated 2015):
Values after ≈ are worked out from the molar mass of the structure shown.

Assays:
[1] = test system: NB4 (acute promyelocytic leukemia, AML); assay: Leukemia cell growth inhibition, MTT, 72 h (Example 5); format: cell-based, human; settings: Homo sapiens; 72 h, MTT
In short: (§1)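 Growth inhibition by tetrandrine derivatives, dosed at several concentrations, was assessed via MTT after a 72-hour culture at 37° C.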

[2] = test system: Jurkat (acute lymphoblastic leukemia, ALL); assay: as above; format: cell-based, human; settings: Homo sapiens, Jurkat; 72 h, MTT
In short: as §1

[3] = test system: K562/adr (drug-resistant, chronic myeloid leukemia, CML); assay: as above; format: cell-based, human; settings: Homo sapiens, K562/Adr; 72 h, MTT
In short: as §1

[4] = test system: Kasumi-1 (acute myeloid leukemia M2 type, AML-M2); assay: as above; format: cell-based, human; settings: Homo sapiens, Kasumi 1
In short: as §1

[5] = test system: H9 (acute lymphoblastic leukemia, ALL); assay: as above; format: cell-based, human; settings: Homo sapiens; 72 h, MTT
In short: as §1

[6] = test system: CaES-17 (esophageal cancer cell); assay: Solid tumor cell growth inhibition, MTT, 72 h (Example 7); format: cell-based, human; settings: Homo sapiens, CaEs17; 72 h, MTT, CAES-17
In short: (§2)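 A 72 h MTT assay: cells (4000/well, 24 h pre-culture in DMEM high glucose with 10% FBS at 37 °C, 5% CO2) were treated with graded concentrations of derivatives, and viability was calculated as % of untreated control.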

[7] = test system: PANC-1 (pancreatic cancer); assay: as above; format: cell-based, human; settings: Homo sapiens; 72 h, MTT, PANC-1
In short: as §2

PC-3 (prostate cancer) = assay: as above; format: cell-based, human; settings: Homo sapiens; 72 h, MTT, PC-3
In short: as §2

[8] = test system: Hep-2 (laryngeal carcinoma); assay: as above; format: cell-based, human; settings: Homo sapiens; 72 h, MTT, Hep 2
In short: as §2

MG63 (osteosarcoma) = assay: as above; format: cell-based, human; settings: Homo sapiens; 72 h, MTT, MG-63
In short: as §2

[9] = test system: U87 MG (malignant glioma cell); assay: as above; format: cell-based; settings: Homo sapiens, U-87 MG
In short: as §2

[10] = test system: SK-OV-3 (ovarian cancer cell); assay: as above; format: cell-based; settings: Homo sapiens
In short: as §2

A549 (human lung cancer) = assay: as above; format: cell-based; settings: Homo sapiens; 72 h, MTT, A549
In short: as §2

[11] = test system: Huh7 (human liver cancer cell); assay: as above; format: cell-based; settings: Homo sapiens; 72 h, MTT, Huh-7
In short: as §2

[12] = test system: Hela (human cervical cancer cell); assay: as above; format: cell-based; settings: Homo sapiens; 72 h, MTT, Hela
In short: as §2

[13] = test system: CNE (nasopharyngeal carcinoma cell); assay: as above; format: cell-based; settings: Homo sapiens
In short: as §2

[14] = test system: Becap37 (human breast cancer cell); assay: as above; format: cell-based; settings: Homo sapiens; 72 h, MTT, Becap-37
In short: as §2

[15] = test system: RKO (human colon adenocarcinoma cell); assay: as above; format: cell-based; settings: Homo sapiens; 72 h, MTT, RKO
In short: as §2

[16] = test system: MGC 803 (human gastric cancer cell); assay: as above; format: cell-based; settings: Homo sapiens
In short: as §2

[17] = test system: RPMI8226 (multiple myeloma); assay: Multiple myeloma cell growth inhibition, MTT, 72 h (Example 6); format: cell-based, human; settings: Homo sapiens, RPMI-8226; 72 h, MTT, RPMI8226
In short: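 RPMI8226 cells (6000 per well) in RPMI 1640 with 10% FBS were exposed to a range of tetrandrine derivative concentrations for 72 h at 37 °C under 5% CO2. Viable cell concentration was then measured by MTT.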

SMILES	IC50 [1]	IC90 [1]	IC50 [2]	IC90 [2]	IC50 [3]	IC90 [3]	IC50 [4]	IC90 [4]	IC50 [5]	IC90 [5]	IC50 [6]	IC90 [6]	IC50 [7]	IC90 [7]	IC50 (PC-3 (prostate cancer))	IC90 (PC-3 (prostate cancer))	IC50 [8]	IC90 [8]	IC50 (MG63 (osteosarcoma))	IC90 (MG63 (osteosarcoma))	further results
CNCc1c2c3c(c(OC)c1OC)Oc1cc4c(cc1OC)CCN(C)[C@H]4Cc1ccc(cc1)Oc1cc(ccc1OC)C[C@@H]3N(C)CC2 [BS-TE-326]	1.2 µg/mL (≈ 1.8 µM)	1.8 µg/mL (≈ 2.7 µM)	1.41 µg/mL (≈ 2.12 µM)	3.98 µg/mL (≈ 5.98 µM)	0.89 µg/mL (≈ 1.34 µM)	2.14 µg/mL (≈ 3.21 µM)	0.96 µg/mL (≈ 1.44 µM)	2.37 µg/mL (≈ 3.56 µM)	0.88 µg/mL (≈ 1.32 µM)	1.35 µg/mL (≈ 2.03 µM)	2.5 µg/mL (≈ 3.75 µM)	6.18 µg/mL (≈ 9.28 µM)	1.63 µg/mL (≈ 2.45 µM)	5.16 µg/mL (≈ 7.75 µM)	3.6 µg/mL (≈ 5.41 µM)	5.8 µg/mL (≈ 8.71 µM)	3.62 µg/mL (≈ 5.44 µM)	6.57 µg/mL (≈ 9.87 µM)	1.4 µg/mL (≈ 2.1 µM)	1.9 µg/mL (≈ 2.85 µM)	IC50 [9]: 0.75 µg/mL (≈ 1.13 µM); IC90 [9]: 2.4 µg/mL (≈ 3.6 µM); IC50 [10]: 1.91 µg/mL (≈ 2.87 µM); IC90 [10]: 5.21 µg/mL (≈ 7.82 µM); IC50 (A549 (human lung cancer)): 1.8 µg/mL (≈ 2.7 µM); IC90 (A549 (human lung cancer)): 4.9 µg/mL (≈ 7.36 µM); IC50 [11]: 1.15 µg/mL (≈ 1.73 µM); IC90 [11]: 1.76 µg/mL (≈ 2.64 µM); IC50 [12]: 1.9 µg/mL (≈ 2.85 µM); IC90 [12]: 3.01 µg/mL (≈ 4.52 µM); IC50 [13]: 3.2 µg/mL (≈ 4.81 µM); IC90 [13]: 4.95 µg/mL (≈ 7.43 µM); IC50 [14]: 1.3 µg/mL (≈ 1.95 µM); IC90 [14]: 2 µg/mL (≈ 3 µM); IC50 [15]: 0.87 µg/mL (≈ 1.31 µM); IC90 [15]: 2.22 µg/mL (≈ 3.33 µM); IC50 [16]: 1.46 µg/mL (≈ 2.19 µM); IC90 [16]: 5.38 µg/mL (≈ 8.08 µM); IC50 [17]: 0.27 µg/mL (≈ 0.406 µM); IC90 [17]: 0.64 µg/mL (≈ 0.961 µM)
COc1ccc2cc1Oc1ccc(cc1)C[C@H]1c3cc(c(OC)cc3CCN1C)Oc1c(OC)c(OC)c(CN3CCSCC3)c3c1[C@H](C2)N(C)CC3 [BS-TE-328]	1.8 µg/mL (≈ 2.44 µM)	4.4 µg/mL (≈ 5.96 µM)	2.09 µg/mL (≈ 2.83 µM)	8 µg/mL (≈ 10.8 µM)	1.46 µg/mL (≈ 1.98 µM)	5.12 µg/mL (≈ 6.94 µM)	0.84 µg/mL (≈ 1.14 µM)	3.76 µg/mL (≈ 5.1 µM)	1.54 µg/mL (≈ 2.09 µM)	3.15 µg/mL (≈ 4.27 µM)	3.13 µg/mL (≈ 4.24 µM)	12.2 µg/mL (≈ 16.5 µM)	2.99 µg/mL (≈ 4.05 µM)	7.15 µg/mL (≈ 9.69 µM)	3.07 µg/mL (≈ 4.16 µM)	4.98 µg/mL (≈ 6.75 µM)	9.63 µg/mL (≈ 13 µM)	15.9 µg/mL (≈ 21.5 µM)	2.1 µg/mL (≈ 2.85 µM)	3.9 µg/mL (≈ 5.28 µM)	IC50 [9]: 1.44 µg/mL (≈ 1.95 µM); IC90 [9]: 5.39 µg/mL (≈ 7.3 µM); IC50 [10]: 6.8 µg/mL (≈ 9.21 µM); IC90 [10]: > 16 µg/mL; IC50 (A549 (human lung cancer)): 3.7 µg/mL (≈ 5.01 µM); IC90 (A549 (human lung cancer)): 9.9 µg/mL (≈ 13.4 µM); IC50 [11]: 1.52 µg/mL (≈ 2.06 µM); IC90 [11]: 3.7 µg/mL (≈ 5.01 µM); IC50 [12]: 2.49 µg/mL (≈ 3.37 µM); IC90 [12]: 4.91 µg/mL (≈ 6.65 µM); IC50 [13]: 6.02 µg/mL (≈ 8.16 µM); IC90 [13]: > 16 µg/mL; IC50 [14]: 2 µg/mL (≈ 2.71 µM); IC90 [14]: 4 µg/mL (≈ 5.42 µM); IC50 [15]: 1.76 µg/mL (≈ 2.38 µM); IC90 [15]: 3 µg/mL (≈ 4.07 µM); IC50 [16]: 1.68 µg/mL (≈ 2.28 µM); IC90 [16]: 4 µg/mL (≈ 5.42 µM); IC50 [17]: 0.15 µg/mL (≈ 0.203 µM); IC90 [17]: 0.96 µg/mL (≈ 1.3 µM)
CCN1CCN(Cc2c3c4c(c(OC)c2OC)Oc2cc5c(cc2OC)CCN(C)[C@H]5Cc2ccc(cc2)Oc2cc(ccc2OC)C[C@@H]4N(C)CC3)CC1 [BS-TE-342]	0.6 µg/mL (≈ 0.801 µM)	1.6 µg/mL (≈ 2.14 µM)	0.8 µg/mL (≈ 1.07 µM)	4.05 µg/mL (≈ 5.41 µM)	0.55 µg/mL (≈ 0.734 µM)	2.15 µg/mL (≈ 2.87 µM)	0.75 µg/mL (≈ 1 µM)	3.1 µg/mL (≈ 4.14 µM)	1.11 µg/mL (≈ 1.48 µM)	2.32 µg/mL (≈ 3.1 µM)	2.21 µg/mL (≈ 2.95 µM)	12.4 µg/mL (≈ 16.5 µM)	1.92 µg/mL (≈ 2.56 µM)	6.84 µg/mL (≈ 9.13 µM)	1.79 µg/mL (≈ 2.39 µM)	2.4 µg/mL (≈ 3.2 µM)	1.86 µg/mL (≈ 2.48 µM)	7.19 µg/mL (≈ 9.6 µM)	0.9 µg/mL (≈ 1.2 µM)	1.9 µg/mL (≈ 2.54 µM)	IC50 [9]: 0.3 µg/mL (≈ 0.401 µM); IC90 [9]: 1.16 µg/mL (≈ 1.55 µM); IC50 [10]: 2 µg/mL (≈ 2.67 µM); IC90 [10]: > 16 µg/mL; IC50 (A549 (human lung cancer)): 3.2 µg/mL (≈ 4.27 µM); IC90 (A549 (human lung cancer)): 16 µg/mL (≈ 21.4 µM); IC50 [11]: 1.31 µg/mL (≈ 1.75 µM); IC90 [11]: 2.46 µg/mL (≈ 3.28 µM); IC50 [12]: 1.69 µg/mL (≈ 2.26 µM); IC90 [12]: 4.1 µg/mL (≈ 5.47 µM); IC50 [13]: 1.6 µg/mL (≈ 2.14 µM); IC90 [13]: 3.7 µg/mL (≈ 4.94 µM); IC50 [14]: 1.1 µg/mL (≈ 1.47 µM); IC90 [14]: 4.5 µg/mL (≈ 6.01 µM); IC50 [15]: 0.69 µg/mL (≈ 0.921 µM); IC90 [15]: 1.75 µg/mL (≈ 2.34 µM); IC50 [16]: 1.38 µg/mL (≈ 1.84 µM); IC90 [16]: 6.55 µg/mL (≈ 8.75 µM); IC50 [17]: 0.006 µg/mL (≈ 0.00801 µM); IC90 [17]: 0.45 µg/mL (≈ 0.601 µM)
